Measured values as given in patent publication US20050282745A1, “Non-mammalian GnRH analogs and uses thereof in regulation of fertility and pregnancy” (priority 2001, published 2005).
Where two headings read alike, the source gives them in different places.

Experiments:
[1] = system: human placental GnRH receptor; experiment: Placental GnRH receptor binding, 125I-Buserelin label
Method: The newly synthesized non-mammalian GnRH analogs and other commercially available mammalian GnRH analogs were used in placental receptors binding and enzyme stability study described here. […] GnRH receptors were purified from the membrane fractions from placentas. The purification procedure for the placental GnRH receptor was performed using a modification of the method described by Bramley et al., which reference is specifically incorporated herein by reference for the purpose. Addition of enzyme inhibitors for the endogenous C-ase-1 were used as well as agents for receptor stabilization. Initially, receptor-binding assays using ^125I-Buserelin as label were performed. The competitive binding of each of the analogs was studied over a dose range of 10^−11 to 10^−6 M. Incubation was at room temperature and receptor bound label was precipitated with polyethylene glycol. Specific and non-specific binding was determined. The data was subjected to Scatchard analysis. The non-mammalian GnRH analogs' ability to bind to the placental GnRH receptor was compared to that for synthetic mammalian GnRH (SEQ ID NO: 5), Buserelin (SEQ ID NO: 10) and other mammalian analogs. […] This way, the receptor affinity for that analog could be precisely determined. Receptors from three different term placentas were used to study each of these analogs. […] Bramley T A, McPhie C A, Menzies G S 1994 Human placental gonadotropin-releasing hormone (GnRH) binding sites: 111. […] Placenta 15:733-745.
In these and additional studies, placental GnRH receptors were purified from human term placentas after homogenization in 40 mM Tris (pH 7.4) and filtered through cheesecloth, followed by an initial centrifugation at 1,000×g for 10 minutes. The resulting supernatant was, again, centrifuged at 35,000×g for 30 minutes and the membrane pellet was collected and resuspended in Tris buffer with 0.3 M sucrose. The protein concentration was determined. Membranes were stored frozen at −20 C until use. Before use, placental membranes were diluted to 5,000 μg/mL with Tris buffer containing 0.5% BSA and 50 U/mL bacitracin. […] Following incubation at room temperature for 4 hours, the bound and free hormones were separated using polyethylene glycol precipitation, followed by centrifugation. The binding affinity for each GnRH isoform or analog was calculated using the double reciprocal plot of bound versus free ligand. Each study was done using three different human term placental tissues.
Receptor assays were performed by incubating human term placental GnRH receptors with varying concentrations of GnRH or its analogs in the presence of ^125I-Buserelin. The reaction was stopped and the bound hormone precipitated with polyethylene glycol.

[2] = system: early human placental explants; experiment: Placental explant perifusion, hCG release; format: cell-based
Excerpt: Placental tissues that are normally discarded were obtained from unidentified patients following first trimester pregnancy termination (early human placental explants). Tissue fragments, dissected of vessels and membranes, were placed in a perfusion system for study of 20 replicate chambers of the same tissue. This allows for simultaneous dose-response studies to be performed. To achieve this specific aim, explants from a given placenta were placed in 20 replicate chambers and perfused with basal medium for three hours at a rate of 6 ml/hr (dead volume of the system at 6 ml/hr is ten minutes). After three hours of equilibration, the analog was added to the basal perfusing medium. Quaduplicate chambers were made for chicken II GnRH analog (SEQ ID NO: 2) at 0, 10^−9, 10^−8, 10^−7, 10^−6 M and Buserelin (SEQ ID NO: 10) at 10^−7 M. The effluent medium of each chamber was collected after a three hour equilibration period. Two basal samples, at half hour intervals were collected, media with test substances was initiated and effluent medium collection continued for four and one half hours at thirty minute intervals. The hCG release was analyzed in each of these experiments. FIGS. 16 and 17 illustrate a typical response. […] Maximal response was observed within minutes after initiation of perfusion at 10^−8 M, with possible down regulation beginning after five hours at 10^−6 M as illustrated in FIG. 18.
In additional experiments, early gestation human placentas were perfused for six hours with medium supplemented with estradiol, progesterone, bovine serum albumin, and antibiotics (basal medium). Twenty replicate chambers were perifused with basal medium for two hours, then triplicate chambers were perifused with the medium containing either Buserelin (SEQ ID NO: 10), or 10^−9, 10^−8, 10^−7, 10^−6 M of a chicken II GnRH analog (SEQ ID NO: 2), leaving five control chambers. The eluted medium was collected at thirty minute intervals, starting one hour prior to the addition of GnRH analogs and throughout five hours of treatment. hCG released into the effluent media, as well as the production of GnRH, were measured using sensitive and specific radioimmunoassays. The release of hCG at each time point was normalized to its zero treatment release and the release throughout the treatment period and its average release was compared for various treatment regimens. These studies were repeated using tissues from three different first trimester placentas. The results of this experiment are illustrated in FIG. 20.

baboon granulosa cells = experiment: Baboon granulosa cell culture, progesterone release; format: cell-based; conditions: chicken II analog 10^−9 to 10^−6 M; Buserelin 10^−7
Excerpt: The biopotency of chicken II GnRH analogs (SEQ ID NO: 2) in the regulation of baboon ovarian function was studied. The effect of mammalian and chicken II GnRH analogs (SEQ ID NO: 2) on ovarian progesterone release was studied using granulosa cell cultures. The dose-related action of a stable analog of chicken II GnRH (SEQ ID NO: 2) on progesterone production was defined using baboon granulosa cell cultures. After a two hour basal study period, the medium was supplemented with either Buserilin (SEQ ID NO: 10) (10^−7) or a chicken II GnRH analog (SEQ ID NO: 2) (10^−9, 10^−8, 10^−7, 10^−6 M) leaving four control wells. […] This inhibition was sustained after 48 hours of treatment. […] In addition, the action of the analog on three different stromal and three different epithelial endometrial primary cell lines (after 3-5 passages) has been studied and PGE2 determined as indicated in FIG. 31.

placental GnRH receptor = experiment: Mean
Excerpt: Table printed on a drawing sheet, Fig. 1
The patent's description of the figure: FIG. 1. Placental Kds for Chicken II and Mammalian GnRH Analogs
First copying reader's note: Each column is one GnRH analog; the rows are Kd values in individual placentas, followed by the mean and SEM.
Where the first naming reader finds the target: passage: the affinity for the placental GnRH receptor was enhanced 2 fold

[3] = system: chorionic peptidase-1 (C-ase-1); experiment: C-ase-1 enzyme activity assay, competition for degradation of GnRH
Method: (§1) Using the incubation system developed for the C-ase-1 activity, the degradation of each analog was tested. […] These studies were done using the C-ase-1 enzyme activity assay as described previously. […] The product formed was calculated by subtraction, and its inverse plotted against the inverse of the original substrate concentrations to determine the nature of the competition. The Ki was to be determined by plotting the inverse of the product that formed verses the inhibitor used.
(§2) The concentration of the product of the degraded GnRH was quantified by subtracting the remaining mammalian GnRH from the starting concentrations of mammalian GnRH. […] The Ks for the degradation of mammalian GnRH was calculated from the x axis intercept using Lineweaver-Burke double reciprocal plot of the concentration of the product formed versus the concentration of the substrate used.
(§3) The reaction was stopped by heating at 85° C. for 10 minutes. The remaining GnRH was determined using a specific radioimmunoassay. The formation of product, i.e., the N-terminal nonapeptide of GnRH, was calculated by subtraction and its inverse was plotted versus the inverse of the initial substrate to determine the Ks of the reaction. […] The relative potency of each analog was compared.
(§4) Using the incubation system developed for the C-ase-1 activity, the degradation of each analog was studied. […] The inverse of the product was plotted against the inverse of the original substrate concentrations to determine Ks of the competition. The Ki was determined by plotting the inverse of the product formed verses the inhibitor used.

[4] = system: human placental GnRH receptor; experiment: Placental GnRH receptor binding, radiolabeled D-Arg(6)-chicken II GnRH-aza-Gly(10)-amide label; conditions: versus Buserelin label
Method: The newly synthesized non-mammalian GnRH analogs and other commercially available mammalian GnRH analogs were used in placental receptors binding and enzyme stability study described here. On the basis of these studies, the most receptor potent and enzyme-stable analogs were chosen for further biopotency studies. GnRH receptors were purified from the membrane fractions from placentas. The purification procedure for the placental GnRH receptor was performed using a modification of the method described by Bramley et al., which reference is specifically incorporated herein by reference for the purpose. Addition of enzyme inhibitors for the endogenous C-ase-1 were used as well as agents for receptor stabilization. Initially, receptor-binding assays using ^125I-Buserelin as label were performed. The competitive binding of each of the analogs was studied over a dose range of 10^−11 to 10^−6 M. Incubation was at room temperature and receptor bound label was precipitated with polyethylene glycol. Specific and non-specific binding was determined. The data was subjected to Scatchard analysis. The non-mammalian GnRH analogs' ability to bind to the placental GnRH receptor was compared to that for synthetic mammalian GnRH (SEQ ID NO: 5), Buserelin (SEQ ID NO: 10) and other mammalian analogs. […] This way, the receptor affinity for that analog could be precisely determined. Receptors from three different term placentas were used to study each of these analogs. […] Bramley T A, McPhie C A, Menzies G S 1994 Human placental gonadotropin-releasing hormone (GnRH) binding sites: 111. Changes in GnRH binding levels with stage of gestation. Placenta 15:733-745.
In these and additional studies, placental GnRH receptors were purified from human term placentas after homogenization in 40 mM Tris (pH 7.4) and filtered through cheesecloth, followed by an initial centrifugation at 1,000×g for 10 minutes. The resulting supernatant was, again, centrifuged at 35,000×g for 30 minutes and the membrane pellet was collected and resuspended in Tris buffer with 0.3 M sucrose. The protein concentration was determined. Membranes were stored frozen at −20 C until use. Before use, placental membranes were diluted to 5,000 μg/mL with Tris buffer containing 0.5% BSA and 50 U/mL bacitracin. Placental membranes (100 μL) were used with varying concentrations of mammalian GnRH (SEQ ID NO: 5), Buserelin (SEQ ID NO: 10), chicken II GnRH (SEQ ID NO: 6), D-Arg (6)-chicken II GnRH-des-Gly (10)-ethylamide (SEQ ID NO: 2), or D-Arg (6)-chicken II GnRH-aza-Gly (10)-amide (SEQ ID NO: 2) (100 μL) and either radiolabeled Buserelin (SEQ ID NO: 10) or radiolabeled D-Arg (6)-chicken II GnRH-aza-Gly (10)-amide (SEQ ID NO: 2) (100 μL/tube and iodinated). Following incubation at room temperature for 4 hours, the bound and free hormones were separated using polyethylene glycol precipitation, followed by centrifugation. The binding affinity for each GnRH isoform or analog was calculated using the double reciprocal plot of bound versus free ligand. Each study was done using three different human term placental tissues.

[5] = system: human term placental explants; experiment: Static explant culture, release of hCG, progesterone, PGE2; format: cell-based; conditions: 0.25-1.00 μM, four placentas
Excerpt: The biological activity of the newly synthesized non-mammalian GnRH analogs was studied using a static implant culture system. This system allows for inexpensive extended activity studies. Mammalian GnRH action on the human placenta release of hCG, progesterone and prostaglandins were defined using this system. Replicate cultures were studied, thus allowing for comparison of different doses of each non-mammalian GnRH analog to mammalian GnRH (SEQ ID NO: 5), as well as direct competition assays. […] These studies were repeated using different human placentas. Siler-Khodr T M, Khodr G S, Valenzuela G, Rhode J 1986 Gonadotropin-releasing hormone effects on placental hormones during gestation: II. Progesterone, estrone, estradiol and estriol. Biol Reprod 34:255-264; Siler-Khodr T M, Khodr G S, Valenzuela G, Rhode J 1986 Gonadotropin-releasing hormone effects on placental hormones during gestation: 1 Alpha-human chorionic gonadotropin, human chorionic gonadotropin and human chorionic somatomammotropin. Biol Reprod 34:245-254; Siler-Khodr T M, Khodr G S, Valenzuela G, Harper J, Rhode J 1986 GnRH effects on placental hormones during gestation. 111 Prostaglandin E, prostaglandin F, and 13, 14-dihydro-15-keto-prostaglandin F. Biol Reprod 35:312-319.
In these and additional studies, an explant culture system was used to determine the effect of mammalian GnRH (SEQ ID NO: 5), chicken II GnRH (SEQ ID NO: 6), or the D-Arg(6)-chicken II GnRH-aza-Gly(10)-amide analog (SEQ ID NO: 2) on the release of the hCG, progesterone, and prostaglandin E2. Human term placentas were dissected free of membranes, minced into fragments of 5 mm, rinsed in medium, and a total weight of ˜100 mg (20 explants) was placed on a sterile filter paper resting on an organ culture grid such that they touched the surface of the culture medium, but were not immersed in it. The medium contained penicillin, streptomycin, and fungizone at 100 U/mL, 100 μg/mL, and 2.5 μg/mL respectively with and without varying doses of GnRH isoforms or analogs was added to each Petri dish. Triplicate chambers for each media were made and incubated at 37 C in a humidified chamber with an atmosphere of 5% CO2 and 95% air. Spent media were collected and replaced after 2 hours, 24 hours, and 48 hour of culture and stored frozen at −20° C. until assayed for hormones. HCG, progesterone, and PGE2 were measured using specific double antibody procedures as described previously. The chicken II GnRH analog (SEQ ID NO: 2) was studied using four different human term placentas, and the native chicken II GnRH isoform was also studied using one human term placenta. Gibbons J M, Mitnick M, Chieffo V 1975 In vitro biosynthesis, of TSH- and LH-releasing factors by the human placenta. Am J Obstet Gynecol 121:127-131.

[6] = system: chorionic peptidase-1 (C-ase-1)
Method: as §1, §2, §3, §4

[7] = system: baboon ovarian enzymatic activity
Method: In these studies the enzyme was in the ovarian extract.
In this assay, following incubation of the enzyme and GnRH, with and without the chosen analog, the reaction was stopped by heating and the remaining GnRH substrate was quantified by radioimmunoassay. The product formed is calculated by subtraction, and its inverse plotted against the inverse of the original substrate concentrations to determine the nature of the competition. The Ki was determined by plotting the inverse of the product formed versus the inhibitor used.

[8] = system: chorionic peptidase-1 (C-ase-1); conditions: neutral pH; read-out: Km for degradation by C-ase-1; cited from earlier work

Kd ([1]; 125I-Buserelin, Example VI, read-out: Kd) [nM] | decrease of affinity when the analog is used as label [4] [times] | degradation by / competition for C-ase-1, in words [6] | Ks for degradation by ovarian tissues [7] [nM] | Ks for degradation by C-ase-1 ([3]; Lineweaver-Burke plot) [nM] | Structure (SMILES) | receptor activity/potency compared with GnRH ([1]; 125I-Buserelin, Example VI) | receptor binding potency compared with mammalian GnRH ([1]; Buserelin label, Example II) | hCG response ([2]; 10^−7 M) | average stimulation of hCG release, relative to control tissues ([2]; throughout five hours of perifusion) [%] | effect on progesterone release, in words (baboon granulosa cells) | Kd (placental GnRH receptor) [nM] | degradation by / competition for C-ase-1, in words [3] | degradation/competition relative to mammalian GnRH ([3]; Example III) | Ki ([3]; competition for degradation of mammalian GnRH, Example III) [nM] | effect on progesterone release [5] | effect on release of hCG [5] | Km [8] [nM]
– | – | – | – | – | CCNC(=O)[C@@H]1CCCN1C(=O)[C@H](CCCNC(=N)N)NC(=O)[C@H](CC(C)C)NC(=O)[C@@H](COC(C)(C)C)NC(=O)[C@H](Cc1ccc(O)cc1)NC(=O)[C@H](CO)NC(=O)[C@H](Cc1c[nH]c2ccccc12)NC(=O)[C@H](Cc1cnc[nH]1)NC(=O)[C@@H]1CCC(=O)N1 [Buserelin] | twice as active | three-fold more potent | small stimulation of hCG at early time points | 150 | without significant effect | 579 ± 84 | potent competitive inhibitors | one fourth the rate | 110 | – | – | –
1000 | 1.5 | actively degraded | ~30 | ~30 | CC(C)C[C@H](NC(=O)CNC(=O)[C@H](Cc1ccc(O)cc1)NC(=O)[C@H](CO)NC(=O)[C@H](Cc1c[nH]c2ccccc12)NC(=O)[C@H](Cc1cnc[nH]1)NC(=O)[C@@H]1CCC(=O)N1)C(=O)N[C@@H](CCCNC(=N)N)C(=O)N1CCC[C@H]1C(=O)NCC(N)=O [mammalian GnRH] | – | – | – | – | – | – | – | – | – | not affected by mammalian GnRH (SEQ ID NO: 5) in two of four placentas, but in one placenta it was significantly increased and in the other was decreased | no significant effect | 10
